In PubChem BioAssay AID1918958 (Molecular Pharmacology Branch, DTP, NCI, 2023):

Tested on: NCI-H196 complex spheroid viability
Experiment: Anticancer human tumor NCI-H196 cell line growth inhibition [LSD1];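 note: spheroids exposed to agents for 7 days before readout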;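 for viability, T/C: 100% = DMSO vehicle control viability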
Settings: for IC50: curve of first compound; for viability, T/C: stronger effect = lower value
Procedure, shortened: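 Multicellular complex spheroids of tumor cells with human endothelial cells (HUVEC) and mesenchymal stem cells; the LSD1 inhibitor iadademstat was combined with standard-of-care or investigational agents. Top concentration at or near clinical Cmax, half-log dilutions; final DMSO ≤0.25%.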

[1] = second compound 0.1 µM, first compound 0.0316 µM
[2] = second compound 0.1 µM, first compound 0.1 µM
[3] = second compound 0.316 µM, first compound 0.0316 µM
[4] = second compound 0.316 µM, first compound 0.1 µM
[5] = second compound 1 µM, first compound 0.0316 µM
[6] = second compound 1 µM, first compound 0.1 µM
[7] = second compound 3.16 µM, first compound 0.0316 µM
[8] = second compound 3.16 µM, first compound 0.1 µM
[9] = second compound 10 µM, first compound 0.0316 µM
[10] = second compound 10 µM, first compound 0.1 µM

Cn1ncnc1C1c2n[nH]c(=O)c3cc(F)cc(c23)NC1c1ccc(F)cc1 (stereo not given) + NC1CC1c1ccc(-c2cccc(O)c2)cc1
IC50 (second compound 0.1 µM): > 0.1 µM
IC50 (second compound 0.316 µM): > 0.1 µM
IC50 (second compound 1 µM): > 0.1 µM
IC50 (second compound 3.16 µM): > 0.1 µM
IC50 (second compound 10 µM): > 0.1 µM
viability, T/C (second compound 0.1 µM, first compound 0.000316 µM): 96.6%
viability, T/C (second compound 0.1 µM, first compound 0.001 µM): 100%
viability, T/C (second compound 0.1 µM, first compound 0.00316 µM): 102%
viability, T/C (second compound 0.1 µM, first compound 0.01 µM): 100%
viability, T/C [1]: 94.3%
viability, T/C [2]: 98.3%
viability, T/C (second compound 0.316 µM, first compound 0.000316 µM): 104%
viability, T/C (second compound 0.316 µM, first compound 0.001 µM): 106%
viability, T/C (second compound 0.316 µM, first compound 0.00316 µM): 98.2%
viability, T/C (second compound 0.316 µM, first compound 0.01 µM): 102%
viability, T/C [3]: 101%
viability, T/C [4]: 106%
viability, T/C (second compound 1 µM, first compound 0.000316 µM): 105%
viability, T/C (second compound 1 µM, first compound 0.001 µM): 98.9%
viability, T/C (second compound 1 µM, first compound 0.00316 µM): 101%
viability, T/C (second compound 1 µM, first compound 0.01 µM): 103%
viability, T/C [5]: 104%
viability, T/C [6]: 106%
viability, T/C (second compound 3.16 µM, first compound 0.000316 µM): 92.2%
viability, T/C (second compound 3.16 µM, first compound 0.001 µM): 99.1%
viability, T/C (second compound 3.16 µM, first compound 0.00316 µM): 102%
viability, T/C (second compound 3.16 µM, first compound 0.01 µM): 102%
viability, T/C [7]: 99.2%
viability, T/C [8]: 92.4%
viability, T/C (second compound 10 µM, first compound 0.000316 µM): 99.1%
viability, T/C (second compound 10 µM, first compound 0.001 µM): 104%
viability, T/C (second compound 10 µM, first compound 0.00316 µM): 95%
viability, T/C (second compound 10 µM, first compound 0.01 µM): 104%
viability, T/C [9]: 97.7%
viability, T/C [10]: 91.4%

CC(C)c1c(-c2ccccc2)nc2c(C#N)c[nH]n2c1=O + NC1CCC(NC2CC2c2ccccc2)CC1
IC50 (second compound 0.1 µM): > 10 µM
IC50 (second compound 0.316 µM): > 10 µM
IC50 (second compound 1 µM): > 10 µM
IC50 (second compound 3.16 µM): > 10 µM
IC50 (second compound 10 µM): > 10 µM
viability, T/C [1]: 104%
viability, T/C [2]: 105%
viability, T/C (second compound 0.1 µM, first compound 0.316 µM): 114%
viability, T/C (second compound 0.1 µM, first compound 1 µM): 94.2%
viability, T/C (second compound 0.1 µM, first compound 3.16 µM): 90.7%
viability, T/C (second compound 0.1 µM, first compound 10 µM): 95.6%
viability, T/C [3]: 101%
viability, T/C [4]: 101%
viability, T/C (second compound 0.316 µM, first compound 0.316 µM): 107%
viability, T/C (second compound 0.316 µM, first compound 1 µM): 98.2%
viability, T/C (second compound 0.316 µM, first compound 3.16 µM): 90%
viability, T/C (second compound 0.316 µM, first compound 10 µM): 84.9%
viability, T/C [5]: 97.4%
viability, T/C [6]: 93.3%
viability, T/C (second compound 1 µM, first compound 0.316 µM): 96.4%
viability, T/C (second compound 1 µM, first compound 1 µM): 94.1%
viability, T/C (second compound 1 µM, first compound 3.16 µM): 91.7%
viability, T/C (second compound 1 µM, first compound 10 µM): 90.7%
viability, T/C [7]: 97.7%
viability, T/C [8]: 104%
viability, T/C (second compound 3.16 µM, first compound 0.316 µM): 98.5%
viability, T/C (second compound 3.16 µM, first compound 1 µM): 93.4%
viability, T/C (second compound 3.16 µM, first compound 3.16 µM): 94.3%
viability, T/C (second compound 3.16 µM, first compound 10 µM): 88%
viability, T/C [9]: 98.7%
viability, T/C [10]: 97.1%
viability, T/C (second compound 10 µM, first compound 0.316 µM): 99.1%
viability, T/C (second compound 10 µM, first compound 1 µM): 102%
viability, T/C (second compound 10 µM, first compound 3.16 µM): 83.4%
viability, T/C (second compound 10 µM, first compound 10 µM): 89%
